# From patent publication EP4700021A1, “NOVEL COMPOUND AND PHARMACEUTICAL COMPOSITION COMPRISING SAME AS ACTIVE INGREDIENT” (Sapiensbio Inc., priority 2023, dated 2025)
# Counter-ions that a name gives are not always drawn.
# System: α-SMA
# Experiment: in vitro α-SMA expression inhibition (immunostaining, confocal microscopy) in TGF-β1-treated MRC-5 cells
# Assay type: cell-based, human
# Details: Homo sapiens, TGF-β1 (5 ng/mL), 72 hours, standardized using GAPDH
# Text: When scars are generated in tissue, fibroblasts undergo fibroblast-to-myofibroblast transition (FMT), and the resulting myofibroblasts produce the extracellular matrix, leading to tissue fibrosis. α-SMA is a representative biomarker of myofibroblasts, and its expression greatly increases as FMT progresses. Accordingly, through the evaluation of α-SMA expression inhibitory activity, the efficacy of the compounds in inhibiting fibrosis may be evaluated. Therefore, the inhibitory activity of the compounds of the present invention on α-SMA expression was evaluated in cells. To more accurately evaluate the inhibition of α-SMA expression, IC50 values were determined by treating human lung-derived fibroblasts (MRC-5 cells) with the compounds of the present invention in a concentration-dependent manner.
# Specifically, 2 hours after the MRC-5 cells were treated with DMSO or compounds dissolved in serum containing 0.5% fetal bovine serum (FBS) in a concentration-dependent manner, fibrosis was induced by treatment with TGF-β1 (5 ng/mL). After 72 hours, the cells were immobilized with a 2% paraformaldehyde solution for 10 minutes, and to impart cell membrane permeability, a 0.1% Triton X-100 solution was treated for 10 minutes, and a 1% bovine serum albumin (BSA) solution was treated to prevent non-specific binding. For immunostaining, anti-GAPDH (BIO-RAD) was first treated as a primary antibody, and Alexa Fluor™ Plus 555 for GAPDH labeling was used as a secondary antibody. For α-SMA staining, an FITC fluorescence-tagged α-SMA primary antibody was used, and thus the increase and decrease in α-SMA caused by the compounds were evaluated. The immunohistochemical experimental results were confirmed with a STELLARIS 5 confocal microscope (Leica), and FITC-stained α-SMA was standardized using GAPDH labeled with Alexa FluorTM Plus 555 for quantification. The IC50 of the compounds according to the present invention was calculated through statistical analysis (linear mixed effects model). […]
row,Compound,IC50 [µM]
1,"CC1(CNC(=O)N2CCN(Cc3ccccn3)c3ccccc32)COC1 [Compound 57, N-((3-methyloxetan-3-yl)methyl)-4-(pyridin-2-ylmethyl)-3,4-dihydroquinoxaline-1(2H)-carboxamide]",≤ 30
2,"O=C(NCC1CCOC1)N1CCN(Cc2ccccn2)c2ccccc21 (stereo not shown) [Compound 58, 4-(pyridin-2-ylmethyl)-N-((tetrahydrofuran-3-yl)methyl)-3,4-dihydroquinoxaline-1(2H)-carboxamide]",< 1
3,"O=C(NC[C@@H]1CCOC1)N1CCN(Cc2ccccn2)c2ccccc21 [Compound 59, (S)-4-(pyridin-2-ylmethyl)-N-((tetrahydrofuran-3-yl)methyl)-3,4-dihydroquinoxaline-1(2H)-carboxamide]",< 1
4,"O=C(NC[C@H]1CCOC1)N1CCN(Cc2ccccn2)c2ccccc21 [Compound 60, (R)-4-(pyridin-2-ylmethyl)-N-((tetrahydrofuran-3-yl)methyl)-3,4-dihydroquinoxaline-1(2H)-carboxamide]",10 to 30
5,"CN1CC[C@@H](COC(=O)N2CCN(Cc3ccccn3)c3ccccc32)C1 [Compound 64, (R)-(1-methylpyrrolidin-3-yl)methyl-4-(pyridin-2-ylmethyl)-3,4-dihydroquinoxaline-1(2H)-carboxylate]",< 1
6,"CN1CCC(COC(=O)N2CCN(Cc3ccccn3)c3ccccc32)CC1 [Compound 65, (1-methylpiperidin-4-yl)methyl-4-(pyridin-2-ylmethyl)-3,4-dihydroquinoxaline-1(2H)-carboxylate]",10 to 30
7,"O=C(NCC1CCNCC1)N1CCN(Cc2ccc(F)cn2)c2ccccc21 [Compound 66, 4-((5-fluoropyridine-2-yl)methyl)-N-(piperidin-4-ylmethyl)-3,4-dihydroquinoxaline-1(2H)-carboxamide oxalic acid salt]",< 1
8,"CN1CCC(CNC(=O)N2CCN(Cc3ccc(F)cn3)c3ccccc32)CC1 [Compound 67, 4-((5-fluoropyridin-2-yl)methyl)-N-((1-methylpiperidin-4-yl)methyl)-3,4-dihydroquinoxaline-1(2H)-carboxamide]",≤ 30
9,"O=C(NCC1CCNCC1)N1CCN(Cc2ncccc2F)c2ccccc21 [Compound 68, 4-((3-fluoropyridin-2-yl)methyl)-N-(piperidin-4-ylmethyl)-3,4-dihydroquinoxaline-1(2H)-carboxamide]",≤ 30
10,"CN1CCC(CNC(=O)N2CCN(Cc3ncccc3F)c3ccccc32)CC1 [Compound 69, 4-((3-fluoropyridin-2-yl)methyl)-N-((1-methylpiperidin-4-yl)methyl)-3,4-dihydroquinoxaline-1(2H)-carboxamide]",1 to 10
11,"CN1CCN(C(=O)N2CCN(C3CCCCC3)c3ccccc32)CC1 [Compound 70, (4-cyclohexyl-3,4-dihydroquinoxaline-1(2H)-yl)(4-methylpiperazin-1-yl)methanone]",1 to 10
12,O=C(N1CCCCC1)N1CCN(C2CCCCC2)c2ccccc21 [Compound 71],1 to 10
13,"CC(C)CC(=O)N1CCN(C(=O)NCC2CCNCC2)c2ccccc21 [Compound 77, 4-(3-Methylbutanoyl)-N-(piperidin-4-ylmethyl)-3,4-dihydroquinoxaline-1(2H)-carboxamide]",≤ 30
14,"CC(C)(C)CC(=O)N1CCN(C(=O)N2CCNCC2)c2ccccc21 [Compound 78, 3,3-dimethyl-1-(4-(piperazine-1-carbonyl)-3,4-dihydroquinoxaline-1(2H)-yl)butan-1-one]",≤ 30
15,"CC(C)(C)CC(=O)N1CCN(C(=O)NCC2CCNCC2)c2ccccc21 [Compound 79, 4-(3,3-dimethylbutanoyl)-N-(piperidin-4-ylmethyl)-3,4-dihydroquinoxaline-1(2H)-carboxamide]",≤ 30

# Same assay, conditions: TGF-β1 (5 ng/mL), 72 hours, standardized using GAPDH
row,Compound,IC50 [µM]
1,"(S)-N-(1-isobutylpyrrolidin-3-yl)-4-(pyrazin-2-ylmethyl)-3,4-dihydroquinoxaline-1(2H)-carboxamide [Compound 44]",≤ 30
